Experimental data as given in PubChem BioAssay AID180 (DTP/NCI, 2004).
Several values for one entry are separate records, joined by “and”; a condition that tells them apart may be missing. Equal values may be shown once.

Test system: BDF1 mice, Adenocarcinoma 755 s.c., tumor weight T/C
Experiment: NCI In Vivo Anticancer Drug Screen. Data for tumor model Adenocarcinoma 755 (subcutaneous) in B6D2F1 (BDF1) mice
Conditions: endpoint: mean tumor weight, higher = larger tumour
Method in brief: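 In vivo antitumor screen on a transplantable tumor line. Result equals the measure in compound-treated animals divided by the same measure in vehicle controls.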

[1] = dose: 12.5 mg/kg/injection, schedule: Q01DX011 (ip), vehicle: methylcellulose (MC)
[2] = dose: 25.0 mg/kg/injection, schedule: Q01DX011 (ip), vehicle: methylcellulose (MC)
[3] = dose: 50.0 mg/kg/injection, schedule: Q01DX011 (ip), vehicle: methylcellulose (MC)

Compound: C[C@]12CC[C@H](O)C[C@@H]1CC[C@@H]1[C@@H]2C(=O)C[C@]2(C)C3=CC(=O)O[C@H]3C[C@@H]12
- T/C (dose: 5.0 mg/kg/injection, schedule: Q01DX011 (sc), vehicle: steriod suspending solution): 73 % of control
- T/C (dose: 10.0 mg/kg/injection, schedule: Q01DX011 (sc), vehicle: steriod suspending solution): 69 % of control
- T/C (dose: 20.0 mg/kg/injection, schedule: Q01DX011 (sc), vehicle: steriod suspending solution): 74 % of control
- T/C (dose: 40.0 mg/kg/injection, schedule: Q01DX011 (sc), vehicle: steriod suspending solution): 77 % of control

Compound: Cn1cnc(=S)c2[nH]cnc21
- T/C (dose: 300.0 mg/kg/injection, schedule: Q01DX011 (ip), vehicle: carboxymethylcellulose (CMC)): 61 % of control

Compound: CCCCNc1ncnc2c1cnn2C1CCCCO1 (configuration not stated)
- T/C (dose: 3.12 mg/kg/injection, schedule: Q01DX011 (ip), vehicle: methylcellulose (MC)): 39 % of control
- T/C (dose: 6.25 mg/kg/injection, schedule: Q01DX011 (ip), vehicle: methylcellulose (MC)): 44 % of control
- T/C [1]: 20 % of control
- T/C [2]: 12 % of control

Compound: O=C(Nc1ccc(C2=NCCCN2)cc1)c1ccc(NC(=O)c2ccc(C3=NCCCN3)cc2)cc1
- T/C (dose: 2.0 mg/kg/injection, schedule: Q01DX011 (ip), vehicle: carboxymethylcellulose (CMC)): 89 % of control
- T/C (dose: 4.0 mg/kg/injection, schedule: Q01DX011 (ip), vehicle: carboxymethylcellulose (CMC)): 63 % of control
- T/C (dose: 8.0 mg/kg/injection, schedule: Q01DX011 (ip), vehicle: carboxymethylcellulose (CMC)): 53 % of control

Compound: CC(C)Cn1cnc2c(SCc3ccccc3[N+](=O)[O-])nc(N)nc21
- T/C (dose: 37.5 mg/kg/injection, schedule: Q01DX011 (ip), vehicle: methylcellulose (MC)): 42 % of control
- T/C (dose: 75.0 mg/kg/injection, schedule: Q01DX011 (ip), vehicle: methylcellulose (MC)): 97 % of control
- T/C (dose: 150.0 mg/kg/injection, schedule: Q01DX011 (ip), vehicle: methylcellulose (MC)): 62 % of control
- T/C (dose: 300.0 mg/kg/injection, schedule: Q01DX011 (ip), vehicle: methylcellulose (MC)): 14 % of control

Compound: Nc1nc(=S)c2ncn(C3CCCCC3)c2[nH]1
- T/C [1]: 81 % of control
- T/C [2]: 86 % of control
- T/C [3]: 50 % of control

Compound: Nc1nnnc2nc[nH]c12
- T/C (dose: 12.5 mg/kg/injection, schedule: Q01DX011 (ip), vehicle: carboxymethylcellulose (CMC)): 75 % of control

Compound: Nc1nc(Cl)c2[nH]cnc2n1
- T/C (dose: 31.0 mg/kg/injection, schedule: Q01DX011 (ip), vehicle: methylcellulose (MC)): 60 % of control
- T/C (dose: 62.0 mg/kg/injection, schedule: Q01DX011 (ip), vehicle: methylcellulose (MC)): 13 % of control
- T/C (dose: 125.0 mg/kg/injection, schedule: Q01DX011 (ip), vehicle: methylcellulose (MC)): 4 % of control

Compound: O=C(Nc1cccc(C2=NCCN2)c1)c1ccc(N=Nc2ccc(C(=O)Nc3cccc(C4=NCCN4)c3)cc2)cc1
- T/C (dose: 15.0 mg/kg/injection, schedule: Q01DX011 (ip), vehicle: methylcellulose (MC)): 81 % of control
- T/C (dose: 30.0 mg/kg/injection, schedule: Q01DX011 (ip), vehicle: methylcellulose (MC)): 70 % of control
- T/C (dose: 60.0 mg/kg/injection, schedule: Q01DX011 (ip), vehicle: methylcellulose (MC)): 68 % of control
- T/C (dose: 120.0 mg/kg/injection, schedule: Q01DX011 (ip), vehicle: methylcellulose (MC)): 70 % of control

Compound: NC(=O)c1ccc(NC(=O)/C=C/C(=O)Nc2ccc(C(N)=O)cn2)nc1
- T/C (dose: 0.47 mg/kg/injection, schedule: Q01DX011 (ip), vehicle: carboxymethylcellulose (CMC)): 75 % of control
- T/C (dose: 0.94 mg/kg/injection, schedule: Q01DX011 (ip), vehicle: carboxymethylcellulose (CMC)): 69 % of control
- T/C (dose: 1.87 mg/kg/injection, schedule: Q01DX011 (ip), vehicle: carboxymethylcellulose (CMC)): 28 % of control

Compound: Nc1nc(N)c(N=O)c(Nc2ccc(Br)cc2)n1
- T/C (dose: 5.0 mg/kg/injection, schedule: Q01DX011 (ip), vehicle: methylcellulose (MC)): 71 % of control
- T/C (dose: 10.0 mg/kg/injection, schedule: Q01DX011 (ip), vehicle: methylcellulose (MC)): 32 % of control
- T/C (dose: 20.0 mg/kg/injection, schedule: Q01DX011 (ip), vehicle: methylcellulose (MC)): 20 % of control and 31 % of control
- T/C (dose: 22.0 mg/kg/injection, schedule: Q01DX011 (ip), vehicle: methylcellulose (MC)): 44 % of control
- T/C (dose: 40.0 mg/kg/injection, schedule: Q01DX011 (ip), vehicle: methylcellulose (MC)): 16 % of control
- T/C (dose: 44.0 mg/kg/injection, schedule: Q01DX011 (ip), vehicle: methylcellulose (MC)): 21 % of control
- T/C (dose: 88.0 mg/kg/injection, schedule: Q01DX011 (ip), vehicle: methylcellulose (MC)): 20 % of control and 30 % of control

Compound: CCN(CC)C(=O)CSc1nc(N)nc2nc[nH]c12
- T/C [2]: 45 % of control
- T/C [3]: 12 % of control
- T/C (dose: 100.0 mg/kg/injection, schedule: Q01DX011 (ip), vehicle: methylcellulose (MC)): 10 % of control
- T/C (dose: 200.0 mg/kg/injection, schedule: Q01DX011 (ip), vehicle: methylcellulose (MC)): 3 % of control and 13 % of control
- T/C (dose: 400.0 mg/kg/injection, schedule: Q01DX011 (ip), vehicle: methylcellulose (MC)): 4 % of control
